Earlier results as cited in patent publication US5505931A, “Acid cleavable compounds, their preparation and use as bifunctional acid-labile crosslinking agents” (The Dow Chemical Company, priority 1993, dated 1996).

Tested on: tumor
Conditions: unconjugated controls

**Q.** With `COc1cccc2c1C(=O)c1c(O)c3c(c(O)c1C2=O)C[C@@](O)(C(C)=O)C[C@@H]3O[C@H]1C[C@H](N)[C@H](O)[C@H](C)O1` [daunomycin] as the compound, how does the “response in control experiments” value read?
**A.** Its value is “inferior response”.
